Read-outs that look alike come from different tables or passages of the source.
What was measured:
IP-10 = IP-10 chemokine level in plasma/serum of treated mice by ELISA; type: in vivo
Protocol: FIG. 7 illustrates induction levels of IP-10 (A) and JE (B) following i.v. or i.m. injection of murine IFN-β protein. C57BL/6 mice were administered 15, 150, or 500 ng of purified recombinant mIFN-β protein (specific activity=2.0×10^8 units/mg) by either i.v. (via tail vein) or i.m. injection (n=3 mice per group). The mice were bled at 2, 4, 6, 12, 24, and 48 hours post-injection, and the plasma levels of IP-10 and JE were measured by ELISA (R&D Systems).
FIG. 8 illustrates the induction of IP-10 following intramuscular injection of AAV-1-mIFN-β DNA or mIFN-β plasmid DNA with electroporation (EP) in mice. […] Mice were bled at the indicated time points and IP-10 levels in plasma were determined by ELISA. […]
• A. Development of mIFN-β Biomarkers: For higher sensitivity in detection of murine IFN-β (mIFN-β) activity in vivo, biomarkers for mIFN-β activity were identified in mice after injection of mIFN-β protein or mIFN-β encoded gene therapy vectors. […] In the present study, the expression of the MxA mouse homologue, Mx1, (see e.g., Hug, H et al. Mol Cell Biol 8: 3065-79; Pavlovic, J (1993) Ciba Found Symp 176: 233-43) isolated from murine peripheral blood monocytes (PBMC's) was used to detect the presence of biologically active mIFN-β. • A quantitative PCR/RT-PCR assay was developed to quantitate the levels of Mx1 mRNA in murine PBMC's. […]

SJL mice with acute EAE = experiment: Mouse acute EAE model, daily clinical scoring; type: in vivo
Mx1 RNA = Mx1 RNA induction in PBMCs of treated mice (quantitative RT-PCR, normalized to GAPDH); type: in vivo
Protocol: FIG. 6 illustrates Mx1 RNA induction following i.v. (A) or i.m. injection (B) of mIFN-β protein. C57BL/6 mice were administered 15, 150, or 500 ng of purified recombinant mIFN-β protein (specific activity-2.0×10^8 units/mg) by either i.v. (via tail vein) or i.m. injection (n=3 mice per group). At the specified time points post-injection mice were bled, and RNA was isolated from PBMCs. Mx1 RNA was measured by quantitative RT-PCR. The fold increase in Mx1 RNA is expressed relative to GAPDH values measured in the same samples. The controls include naive mice (N), and mice injected with the vehicle buffer only followed by Mx1 analysis at 2 hours (V2 h) or 4 h (V4 h) post-injection. Each column represents the mean value +/− standard deviation.

luciferase reporter gene = experiment: Luciferase reporter gene assay for activity of purified mIFN-β protein; type: cell-based
Protocol: Specifically, the gene encoding mIFN-β was cloned into a pCEP4 expression vector (Invitrogen). The expression plasmid encoding mIFN-β was transiently transfected into 293E cells (Edge Biosystems) using X-tremeGene Ro-1539 Transfection Reagent (Roche). Murine IFN-β protein was purified from the medium by ion-exchange chromatography and by hydrophobic-interaction chromatography. The product was sialyzed and concentrated against dilution buffer (50 mM sodium acetate, pH 5.5, 150 mM sodium chloride, and 5% polypropylene glycol) and sterile filtered. Aliquots of the purified protein were stored at −80° C. The activity of the purified protein was assessed using a luciferase reporter gene assay (Hardy et al. (2001) Blood 97:473-482), using a commercial mIFN-β reference standard from Access Biomedical (San Diego, Calif.). The specific activity of the purified protein was 2×10^8 units/mg.
The positive control used for this study was Prednisolone, 2.5 mg/kg, (Sigma, St. Louis) administered by IP injection twice daily, beginning on day 1, until the end of the study. For mIFN-β protein delivery, the mice were given SC injections of purified recombinant mIFN-β protein every other day, starting on day 1 of the study (100,000 or 300,000 IU per animal per injection in 100 ul vehicle buffer). […]

In the case of “mIFN-β: purified recombinant murine interferon-beta protein”, the “time by which plasma IP-10 dropped to background” value (IP-10; bolus protein, each of three doses) is reported as at most 24 h, the IP-10 levels increase (IP-10; high dose (500 ng) delivered i.v., 2 hours) is reported as 3000 fold and the “clinical scores of EAE compared to vehicle treated mice” value (SJL mice with acute EAE; 30,000 units s.c. every other day, first study) is reported as “did not reach statistical significance”. For the same substance, the “clinical scores of EAE compared to vehicle control” value (SJL mice with acute EAE; 100,000 Units s.c. every other day, second study (FIG. 12)) was “significantly decreased clinical scores”, the “severity of the disease (clinical scores) compared to vehicle treated animals” value (SJL mice with acute EAE; 100,000 or 300,000 units SC every other day, 25 day study (FIG. 39A)) was “significantly reduced the severity of the disease” and the “clinical scores of EAE compared with vehicle treated mice” value (SJL mice with acute EAE; 100,000 units s.c. every other day, first study (FIG. 11)) was “significantly decreased clinical scores”. For the same substance, the “time after injection beyond which no Mx1 RNA levels above background were detected” value (Mx1 RNA; bolus protein) was 12 h, the “Induction of Mx1 RNA expression relative to vehicle injected mice” value (Mx1 RNA; bolus protein 15, 150 or 500 ng, i.v. or i.m.) was 25- to 50 fold and the “Tmax of induction of all three biomarkers (Mx1, IP-10, JE)” value (Mx1 RNA; bolus protein i.v. or i.m.) was “approximately 2 hours”. For the same substance, the “time after injection of highest Mx1 expression levels” value (Mx1 RNA; bolus protein i.v. or i.m.) was 2 h, the “time post-injection within which biomarker levels dropped to background” value (Mx1 RNA; bolus protein i.v. or i.m.) was 12 to 24 h and the “dose giving highest Mx1 induction” value (Mx1 RNA; i.v. injection, diminished at 500 ng) was 150 ng. For the same substance, the “specific activity of the purified protein” value (luciferase reporter gene) was 2×10^8 international units (IU) per mg and the “specific activity of the purified protein” value (luciferase reporter gene; commercial mIFN-β reference standard) was 2×10^8 units/mg.
